{
  "source": "patent US8022034B2",
  "about": "“Combination therapy for the treatment of diabetes and conditions related thereto and for the treatment of conditions ameliorated by increasing a blood GLP-1 level” (Arena Pharmaceuticals, Inc., priority 2005, dated 2011)",
  "key": {"[1]": {"tested_on": "elevated blood glucose level", "experiment": "Oral glucose tolerance test (oGTT) in mice (Example 1)", "format": "in vivo", "protocol": "Oral glucose tolerance test (oGTT) in mice was carried out as described here. Overnight fasted mice (n=6 mice per treatment) were administered via oral gavage with vehicle (PET), a GPR119 agonist (AR231453) at 1 mkg (milligram compound per kilogram of body weight), a DPP-IV inhibitor (AR247810) at 0.1 mkg, or a combination of the GPR119 agonist (1 mkg) and the DPP-IV inhibitor (0.1 mkg). Thirty minutes later, a glucose bolus (3 gram/kg) was then delivered per orally. Plasma glucose levels were determined at the indicated time points over a two hour period using blood (˜5 μl) collected from tail nick and a glucose meter. Glycemic excursion curve was graphed based on data from 6 mice and given in mean values+/−SEM (FIG. 1A)."}, "[2]": {"molecular_target": "T1, GPR119 (GLUTag-Fla cells which express GPR119) (Mus musculus, UniProt Q7TQP3)", "T1 construct": "endogenous in cells; host or cells: GLUTag-Fla (mouse enteroendocrine cell line), membrane preparation", "T1 sequence (Q7TQP3 1-335)": "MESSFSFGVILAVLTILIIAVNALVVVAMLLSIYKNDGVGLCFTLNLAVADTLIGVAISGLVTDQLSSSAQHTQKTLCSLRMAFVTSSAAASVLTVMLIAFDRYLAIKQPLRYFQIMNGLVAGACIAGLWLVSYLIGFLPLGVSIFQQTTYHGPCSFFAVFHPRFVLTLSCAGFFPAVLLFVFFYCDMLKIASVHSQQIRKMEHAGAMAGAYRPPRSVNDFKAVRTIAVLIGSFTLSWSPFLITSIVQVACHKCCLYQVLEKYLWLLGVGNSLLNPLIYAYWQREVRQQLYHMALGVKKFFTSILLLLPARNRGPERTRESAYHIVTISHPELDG", "experiment": "Flash Plate adenylyl cyclase (cAMP) assay with GLUTag-Fla cell membranes", "format": "biochemical", "protocol": "(§1) GLUTag is a mouse enteroendocrine cell line that secretes GLP-1 [Brubaker et al., Endocrinology (1998) 139:4108-4114]. The effect of GPR119 agonist on the level of intracellular cAMP in GLUTag (Fla subline) enteroendocrine cells was determined. The Fro subline of GLUTag was used as a negative control.\n(§2) GluTag (GLUTag-Fla and GLUTag-Fro) cells were plated at […] in 15-cm tissue culture plate with regular growth medium. On the next day, cells were scraped off with cold Scraping Buffer (20 mM HEPES, 10 mM EDTA, pH7.4) and spinned down at 1000 rpm for 17 mins at 4° C. Cell pellets were washed with cold Membrane Wash Buffer (20 mM HEPES, 0.1 mM EDTA, pH7.4) and spun again as above. […] Protein concentration was determined by Bradford Assay. […]\n(§3) The cyclase assay was done with a Flash Plate™ Adenylyl Cyclase kit (New England Nuclear; Cat. No. SMP004A). […] The cAMP generated in the wells can be quantitated by a direct competition for binding of radioactive cAMP tracer to the cAMP antibody.\n(§4) Details of the cyclase assay as it was carried out are described here. cAMP standards and Detection Buffer (comprising 1 μCi of tracer [125I]cAMP (50 μl) to 11 ml Detection Buffer) were prepared and maintained in accordance with the manufacturer's instructions. […] Plates were incubated for an additional two hours, after which the samples were counted in a Wallac MicroBeta scintillation counter. […]"}, "[3]": {"tested_on": "GLUTag-Fro cells which do not express GPR119", "experiment": "Flash Plate adenylyl cyclase (cAMP) assay with GLUTag-Fro cell membranes (negative control)", "format": "biochemical, mouse", "protocol": "as §1, §2, §3, §4"}, "[4]": {"tested_on": "GLUTag-Fla cells", "experiment": "GLP-1 secretion in GLUTag-Fla cells (GLP-1 Active ELISA)", "format": "cell-based, mouse", "conditions": "various concentrations, serum free DMEM with 15 mM glucose, one hour at 37° C.", "protocol": "GLUTag-Fla cells (see Example 12, supra) were plated in 24-well plates on day one in complete culture medium (DMEM/10% FBS). On day two the culture medium was replaced with a low glucose medium (DMEM/3 mM Glucose/10% FBS). On day three cells were washed twice with 1XPBS. The washed GLUTag-Fla cells were stimulated with GPR119 agonist (AR231453) at various concentrations or with forskolin (1 uM) as a positive control in serum free DMEM with 15 mM glucose for one hour at 37° C. and 5% CO2 in a tissue culture incubator. The supernatants were then collected and clarified by centrifugation at 500 g and 4° C. for 5 minutes. GLP-1 released into the supernatant was determined by ELISA using reagents purchased from LINCO Research Laboratory [Glucagon-Like Peptide-1 (Active) ELISA Kit. Cat. #EGLP-35K]."}, "[5]": {"tested_on": "blood glucose level", "experiment": "Oral glucose tolerance test (oGTT) in C57BL/6J mice (Example 14)", "format": "in vivo", "conditions": "DPP-IV inhibitor alone, 1 mpk oral gavage, one hour before glucose bolus 2 gram/kg", "protocol": "Oral glucose tolerance test (oGTT) in 7-8 week old C57BL/6J mice was carried out as described here. […] GPR119 agonist AR244061 was administered at 10 mpk or 30 mpk (milligram compound per kilogram of body weight). […] One hour after compound dosing, a glucose bolus (2 gram/kg) was delivered per orally, and tail blood samples were collected to measure blood glucose at 0, 30, 60 and 120 minutes. […] For each treatment group, glycemic excursion curve was graphed and is presented with blood glucose concentration given in mean values+/− standard error of the mean (SEM). Area Under Curve (AUC) of the glycemic excursion was calculated and reported as AUC (% of vehicle control)."}},
  "data": [
    {"compound": "CC(C)c1noc(C2CCN(c3ncnc(Nc4ccc(S(C)(=O)=O)cc4F)c3[N+](=O)[O-])CC2)n1", "note": "[AR231453]", "values": [
      {"measurement": "AUC inhibition (effective therapeutic response)", "setting": "[1]; compound alone at significantly higher doses (FIG. 1C, FIG. 1D)", "value": "around 40%"},
      {"measurement": "Elevation of the level of intracellular cAMP", "setting": "[2]; GLUTag-Fla cells which express GPR119", "value": "elevate the level of intracellular cAMP"},
      {"measurement": "EC50", "setting": "[2]; GLUTag-Fla membranes, eight doses from 10 uM to 1.27 nM, 60 min at room temperature, read-out: EC50 for elevation of cAMP in GLUTag cells", "value": "~4.3", "unit": "nM"},
      {"measurement": "Elevation of the level of intracellular cAMP", "setting": "[3]", "value": "not"},
      {"measurement": "GLP-1 secretion on stimulation", "setting": "[4]", "value": "secrete GLP-1"}
    ]},
    {"compound": "exendin-4: incretin mimetic [reference compound]", "values": [
      {"measurement": "AUC inhibition of glycemic excursion", "setting": "[1]; incretin mimetic in this mouse model, dose not given", "value": "~60", "unit": "%"}
    ]},
    {"compound": "N#C[C@@H]1CCCN1C(=O)CNC12CC3CC(CC(O)(C3)C1)C2", "note": "[LAF237, (1-[[3-hydroxy-1-adamantyl)amino]acetyl]-2-cyano-(S)-pyrrolidine]", "values": [
      {"measurement": "Glycemic control in oGTT", "setting": "[5]", "value": "measurable glycemic control"}
    ]},
    {"compound": "N[C@@H](CC(=O)N1CCn2c(nnc2C(F)(F)F)C1)Cc1cc(F)c(F)cc1F", "note": "[MK-0431, 3(R)-Amino-1-[3-(trifluoromethyl)-5,6,7,8-tetrahydro[1,2,4]triazolo[4,3-a]pyrazin-7-yl]-4-(2,4,5-trifluorophenyl)butan-1-one]", "values": [
      {"measurement": "Glycemic control in oGTT", "setting": "[5]", "value": "measurable glycemic control"}
    ]}
  ]
}
